Experimental data: the supplement of paper PMC10307832

How the values were obtained:
Assay in all cases: relative viability (nuclei count vs DMSO), 5 days (fraction); higher = more cells survive
[1] = compound: CS(=O)(=O)N1CCN(Cc2cc3nc(-c4cccc5[nH]ncc45)nc(N4CCOCC4)c3s2)CC1 [Pictilisib] + O=C(c1cc(Cc2n[nH]c(=O)c3ccccc23)ccc1F)N1CCN(C(=O)C2CC2)CC1 [Olaparib] (partner 8 µM)
Summary of the method: (§1)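 Values are medians from duplicate plates. Each reflects relative viability, defined as the nuclei count of treated wells over that of vehicle wells. Lung cancer cell lines in 1536-well plates were pin-tool dosed one day after seeding with one drug alone or with a fixed anchor-drug dose plus five library-drug doses (not always all listed) in √10 steps, then fixed, stained and imaged at 4× after 5 days.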

[2] = compound: NC1(c2ccc(-c3nc4ccn5c(=O)[nH]nc5c4cc3-c3ccccc3)cc2)CCC1 [MK-2206] + CC(=O)c1c(C)c2cnc(Nc3ccc(N4CCNCC4)cn3)nc2n(C2CCCC2)c1=O [Palbociclib] (partner 0.5 µM)
Summary of the method: as §1

[3] = compound: NC1(c2ccc(-c3nc4ccn5c(=O)[nH]nc5c4cc3-c3ccccc3)cc2)CCC1 [MK-2206] + CC(C)C[C@H](NC(=O)[C@H](Cc1ccccc1)NC(=O)c1cnccn1)B(O)O [Bortezomib] (partner 0.002 µM)
Summary of the method: as §1

[4] = compound: NC1(c2ccc(-c3nc4ccn5c(=O)[nH]nc5c4cc3-c3ccccc3)cc2)CCC1 [MK-2206] + Nc1ncn([C@H]2C[C@H](O)[C@@H](CO)O2)c(=O)n1 [Decitabine] (partner 2 µM)
Summary of the method: as §1

[5] = compound: CS(=O)(=O)N1CCN(Cc2cc3nc(-c4cccc5[nH]ncc45)nc(N4CCOCC4)c3s2)CC1 [Pictilisib] + Nc1nc2[nH]cc(CCc3ccc(C(=O)N[C@@H](CCC(=O)O)C(=O)O)cc3)c2c(=O)[nH]1 [Pemetrexed] (partner 0.2 µM)
Summary of the method: as §1

Q: With UMC-11 as the cell line, how does the relative viability ([1]; first compound 0.02 µM) read?
A: Its relative viability is 0.822.

Q: What about the relative viability ([1]; first compound 0.06325 µM) of the same cell line?
A: The relative viability was 0.344.

Q: And the relative viability ([1]; first compound 0.6325 µM)?
A: The relative viability was 0.666.

Q: And the relative viability ([1]; first compound 2 µM)?
A: The relative viability was 0.384.

Q: What about the relative viability ([2]; first compound 0.01 µM) of the same cell line?
A: Its relative viability is 0.318.

Q: What about the relative viability ([2]; first compound 0.03162 µM) of the same cell line?
A: Its relative viability is 0.359.

Q: And the relative viability ([2]; first compound 0.3162 µM)?
A: The relative viability was 0.288.

Q: And the relative viability ([2]; first compound 1 µM)?
A: The relative viability was 0.317.

Q: What about the relative viability ([3]; first compound 0.01 µM) of the same cell line?
A: The relative viability was 0.668.

Q: And the relative viability ([3]; first compound 0.03162 µM)?
A: Its relative viability is 0.793.

Q: And the relative viability ([3]; first compound 0.3162 µM)?
A: Its relative viability is 0.852.

Q: And the relative viability ([3]; first compound 1 µM)?
A: The relative viability was 0.389.

Q: What about the relative viability ([4]; first compound 0.01 µM) of the same cell line?
A: Its relative viability is 0.669.

Q: What about the relative viability ([4]; first compound 0.03162 µM) of the same cell line?
A: The relative viability was 0.643.

Q: What about the relative viability ([4]; first compound 0.3162 µM) of the same cell line?
A: Its relative viability is 0.569.

Q: And the relative viability ([4]; first compound 1 µM)?
A: The relative viability was 0.716.

Q: What about the relative viability ([5]; first compound 0.02 µM) of the same cell line?
A: Its relative viability is 0.784.

Q: What about the relative viability ([5]; first compound 0.06325 µM) of the same cell line?
A: Its relative viability is 0.787.

Q: What about the relative viability ([5]; first compound 0.6325 µM) of the same cell line?
A: Its relative viability is 0.737.

Q: What about the relative viability ([5]; first compound 2 µM) of the same cell line?
A: The relative viability was 0.535.
